Test results published in patent US5260300A, “Rapamycin carbonate esters as immuno-suppressant agents” (American Home Products Corporation, priority 1992, dated 1993).
Where “and” joins values, the source holds several entries; their conditions need not be identical. Identical values can stand only once. Like-named read-outs stand apart in the source and are kept apart here.

What was measured:
[1] = tested on: cells from the thymus of normal BALB/c mice (lymphocyte proliferation); assay: LAF assay: comitogen-induced thymocyte proliferation (inhibition of lymphocyte proliferation); assay type: cell-based
Procedure: Immunosuppressive activity was determined in an in vitro standard pharmacological test to measure lymphocyte proliferation (LAF). […] Thus in this assay, the invention compounds have LAF activity equal or greater than rapamycin and would therefore be expected to posses the immunological properties of rapamycin and be useful in the treatment of transplantation rejection and autoimmune diseases such as lupus, rheumatoid arthritis, diabetes mellitus, multiple sclerosis, psoriasis and the like. Because of the structural similarity of the invention compounds with rapamycin and other analogs having antifungal activity against several strains of Candida albicans, the compounds of this invention would also be expected to have antifungal properties. Similarly, the compounds of this invention would be expected to have antiinflammatory activity.
The comitogen-induced thymocyte proliferation procedure (LAF) was used as an in vitro measure of the immunosuppressive effects of representative compounds. Briefly, cells from the thymus of normal BALB/c mice are cultured for 72 hours with PHA and IL-1 and pulsed with tritiated thymidine during the last six hours. Cells are cultured with and without various concentrations of rapamycin, cyclosporin A, or test compound. Cells are harvested and incorporated; radioactivity is determined. Inhibition of lymphoproliferation is assessed in percent change in counts per minute from non-drug treated controls. The results are expressed by the following ratio, or as the percent inhibition of lymphoproliferation at a concentration of 1 μM or as the IC50. [formula]

[2] = cited from earlier work
Candida albicans [3] = conditions: particularly against Candida albicans; cited from earlier work
Candida albicans [4] = conditions: particularly against Candida albicans; cited from earlier work; remark: listed apart in the source
tumor = conditions: alone or in combination with picibanil; cited from earlier work
[5] = in vivo; cited from earlier work
[6] = in vivo; cited from earlier work; remark: listed apart in the source
IgE-like antibodies = conditions: in vivo; cited from earlier work
[7] = Mus musculus, Lymphocyte, 72 h, Table I, 72 hours culture with PHA and IL-1, read-out: IC50 Ester (IC50 data for LAF assay)

With `COC(=O)O[C@@H]1/C(C)=C/[C@@H](C)C(=O)C[C@@H]([C@H](C)C[C@@H]2CC[C@@H](OC(=O)OC)[C@H](OC)C2)OC(=O)[C@@H]2CCCCN2C(=O)C(=O)[C@]2(O)O[C@@H](CC[C@H]2C)C[C@H](OC)/C(C)=C/C=C/C=C/[C@@H](C)C[C@@H](C)C(=O)[C@@H]1OC` [Example 1A, 31, 42-O-Bis(methoxycarbonyl)rapamycin] the IC50 [1, 7] was 0.87 nM.
For `COC(=O)O[C@@H]1CC[C@@H](C[C@@H](C)[C@@H]2CC(=O)[C@H](C)/C=C(\C)[C@@H](O)[C@@H](OC)C(=O)[C@H](C)C[C@H](C)/C=C/C=C/C=C(\C)[C@@H](OC)C[C@@H]3CC[C@@H](C)[C@@](O)(O3)C(=O)C(=O)N3CCCC[C@H]3C(=O)O2)C[C@H]1OC` [Example 1B, 42-O-Methoxycarbonylrapamycin], the IC50 [1, 7] was 2.5 nM.
Compound `CCOC(=O)O[C@@H]1/C(C)=C/[C@@H](C)C(=O)C[C@@H]([C@H](C)C[C@@H]2CC[C@@H](OC(=O)OCC)[C@H](OC)C2)OC(=O)[C@@H]2CCCCN2C(=O)C(=O)[C@]2(O)O[C@@H](CC[C@H]2C)C[C@H](OC)/C(C)=C/C=C/C=C/[C@@H](C)C[C@@H](C)C(=O)[C@@H]1OC` [Example 2A, 31, 42-O-Bis(ethoxycarbonyl)rapamycin] has an IC50 [1, 7] of 2 nM.
Compound `CCOC(=O)O[C@@H]1CC[C@@H](C[C@@H](C)[C@@H]2CC(=O)[C@H](C)/C=C(\C)[C@@H](O)[C@@H](OC)C(=O)[C@H](C)C[C@H](C)/C=C/C=C/C=C(\C)[C@@H](OC)C[C@@H]3CC[C@@H](C)[C@@](O)(O3)C(=O)C(=O)N3CCCC[C@H]3C(=O)O2)C[C@H]1OC` [Example 2B, 42-O-Ethoxycarbonylrapamycin] has an IC50 [1, 7] of 0.6 nM.
`CO[C@H]1C[C@@H]2CC[C@@H](C)[C@@](O)(O2)C(=O)C(=O)N2CCCC[C@H]2C(=O)O[C@H]([C@H](C)C[C@@H]2CC[C@@H](OC(=O)Oc3ccccc3)[C@H](OC)C2)CC(=O)[C@H](C)/C=C(\C)[C@@H](O)[C@@H](OC)C(=O)[C@H](C)C[C@H](C)/C=C/C=C/C=C/1C` [Example 3, 42-O-(Phenyloxycarbonyl)rapamycin] gave an IC50 [1, 7] of 0.34 nM.
For `CO[C@H]1C[C@@H]2CC[C@@H](C)[C@@](O)(O2)C(=O)C(=O)N2CCCC[C@H]2C(=O)O[C@H]([C@H](C)C[C@@H]2CC[C@@H](OC(=O)Oc3ccc([N+](=O)[O-])cc3)[C@H](OC)C2)CC(=O)[C@H](C)/C=C(\C)[C@@H](O)[C@@H](OC)C(=O)[C@H](C)C[C@H](C)/C=C/C=C/C=C/1C` [Example 4A, 42-O-(4-Nitrophenyloxycarbonyl)rapamycin], the IC50 [1, 7] was 1 nM.
Work on `CO[C@H]1C[C@@H]2CC[C@@H](C)[C@@](O)(O2)C(=O)C(=O)N2CCCC[C@H]2C(=O)O[C@H]([C@H](C)C[C@@H]2CC[C@@H](OC(=O)Oc3ccc([N+](=O)[O-])cc3)[C@H](OC)C2)CC(=O)[C@H](C)/C=C(\C)[C@@H](OC(=O)Oc2ccc([N+](=O)[O-])cc2)[C@@H](OC)C(=O)[C@H](C)C[C@H](C)/C=C/C=C/C=C/1C` [Example 4B, 31, 42-O-Bis(4-Nitrophenyloxycarbonyl)rapamycin] yielded an IC50 ([1]; Mus musculus, Lymphocyte, 72 h, read-out: IC50 Ester (IC50 data for LAF assay)) of 23 nM.
For `C=CCOC(=O)O[C@@H]1CC[C@@H](C[C@@H](C)[C@@H]2CC(=O)[C@H](C)/C=C(\C)[C@@H](O)[C@@H](OC)C(=O)[C@H](C)C[C@H](C)/C=C/C=C/C=C(\C)[C@@H](OC)C[C@@H]3CC[C@@H](C)[C@@](O)(O3)C(=O)C(=O)N3CCCC[C@H]3C(=O)O2)C[C@H]1OC` [Example 5, 42-O-(Prop-2-enyloxycarbonyl)rapamycin], the IC50 [1, 7] was 1.6 nM.
With `CO[C@H]1C[C@@H]2CC[C@@H](C)[C@@](O)(O2)C(=O)C(=O)N2CCCC[C@H]2C(=O)O[C@H]([C@H](C)C[C@@H]2CC[C@@H](OC(=O)OCc3ccccc3)[C@H](OC)C2)CC(=O)[C@H](C)/C=C(\C)[C@@H](O)[C@@H](OC)C(=O)[C@H](C)C[C@H](C)/C=C/C=C/C=C/1C` [Example 6, 42-O-(Benzyloxycarbonyl)rapamycin] the IC50 [1, 7] was 0.32 nM.
In the case of `C=CC[C@@H]1/C=C(\C)C[C@H](C)C[C@H](OC)[C@H]2O[C@@](O)(C(=O)C(=O)N3CCCC[C@H]3C(=O)O[C@H](/C(C)=C/[C@@H]3CC[C@@H](O)[C@H](OC)C3)[C@H](C)[C@@H](O)CC1=O)[C@H](C)C[C@@H]2OC` [FK-506], the “effectiveness as immunosuppressive agent” value ([2]; useful in preventing transplant rejection) is given as “effective as immunosuppressive agents”.
In the case of `CO[C@H]1C[C@@H]2CC[C@@H](C)[C@@](O)(O2)C(=O)C(=O)N2CCCC[C@H]2C(=O)O[C@H]([C@H](C)C[C@@H]2CC[C@@H](O)[C@H](OC)C2)CC(=O)[C@H](C)/C=C(\C)[C@@H](O)[C@@H](OC)C(=O)[C@H](C)C[C@H](C)/C=C/C=C/C=C/1C` [Rapamycin], the IC50 ([1]; Table I, Rapamycin, comparative result beside each example ester, read-out: IC50 Rapamycin (IC50 data for LAF assay)) is listed as 3.9 nM and 3.8 nM and 6.3 nM, the “antifungal activity in vitro” value (Candida albicans [3]) is listed as “antifungal activity, particularly against Candida albicans” and the “antifungal activity in vivo” value (Candida albicans [4]) is listed as “antifungal activity, particularly against Candida albicans”. The antitumor activity (tumor) was “antitumor activity”, the “efficacy in experimental allergic encephalomyelitis model” value [5] was “effective” and the “efficacy in adjuvant arthritis model” value [6] was “effective”. For the same compound, the “inhibition of formation of IgE-like antibodies” value (IgE-like antibodies) was “effectively inhibited” and the “inhibition of transplant rejection” value ([2]; in vivo) was “effective in inhibiting transplant rejection”.
